Laboratory results taken from US11976083B2, “Inhibitors of peptidylarginine deiminases” (Gilead Sciences, Inc., priority 2020, dated 2024).

target: T1, human PAD4 (Homo sapiens, UniProt Q9UM07); test: In vitro PAD4 BAEE biochemical assay; details: BAEE substrate 3 mM, 5 nM PAD4, 2 mM calcium chloride; geometric mean of multiple experiments
T1 construct: human PAD4 (NM_012387), A2-P663, was PCR amplified; His-SUMO (N, cleaved yes); made in house; host or cells: E. coli BL21(DE3)
How it was run: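 Recombinant PAD4 (5 nM final) with 2 mM CaCl2 was preincubated with compound for 30 min at 25 °C in MOPS pH 7.6 buffer with DTT, then reacted with 3 mM BAEE for 2 h at 25 °C. Released ammonia was detected fluorimetrically with o-phthalaldehyde/DTT; IC50 from four-parameter fit, geometric mean of experiments.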

T1 sequence (Q9UM07 2-663): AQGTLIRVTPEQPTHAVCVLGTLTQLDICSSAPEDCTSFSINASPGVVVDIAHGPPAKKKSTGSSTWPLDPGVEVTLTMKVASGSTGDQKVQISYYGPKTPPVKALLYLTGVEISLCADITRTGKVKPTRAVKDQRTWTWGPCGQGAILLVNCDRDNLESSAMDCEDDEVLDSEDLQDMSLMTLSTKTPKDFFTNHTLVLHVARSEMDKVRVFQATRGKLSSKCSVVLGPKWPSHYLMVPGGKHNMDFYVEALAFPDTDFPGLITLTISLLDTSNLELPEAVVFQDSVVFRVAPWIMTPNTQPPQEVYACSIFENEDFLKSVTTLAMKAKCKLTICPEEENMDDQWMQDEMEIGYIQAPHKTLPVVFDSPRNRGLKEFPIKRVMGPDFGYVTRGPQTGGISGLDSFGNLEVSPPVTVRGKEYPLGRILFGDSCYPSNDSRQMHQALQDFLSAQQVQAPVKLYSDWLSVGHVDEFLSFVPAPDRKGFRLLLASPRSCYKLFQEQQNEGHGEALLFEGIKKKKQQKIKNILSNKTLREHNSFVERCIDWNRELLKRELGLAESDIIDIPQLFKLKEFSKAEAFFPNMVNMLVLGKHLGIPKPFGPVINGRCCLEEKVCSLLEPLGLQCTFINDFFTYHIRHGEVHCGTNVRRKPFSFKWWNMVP

IC50 [nM] | Structure (SMILES)
16 | COc1cc(C(=O)N2CC[C@@H](O)[C@@H](N)C2)cc2nc(-c3cc4ccc5nc4n3CCCCCc3cncc(F)c3C(=O)N[C@@H]5C)n(C)c12 [Example 660, (2~{R})-17-[5-[(3~{S},4~{R})-3-amino-4-hydroxy-piperidine-1-carbonyl]-7-methoxy-1-methyl-benzimidazol-2-yl]-6-fluoro-2-methyl-3,8,16,22-tetrazatetracyclo[14.5.2.0^ {5,10}.0^{19,23}] tricosa-1(22),5,7,9,17,19(23), 20-heptaen-4-one]
44 | COc1cc(C(=O)N2CC[C@@H](OC)[C@@H](N)C2)cc2nc(-c3cc4ccc5nc4n3CCCCCC[C@]3(CCCO3)C(=O)N[C@@H]5C)n(C)c12 [Example 686, (8~{S},11~{R})-17-[5-[(3~{S},4~{R})-3-amino-4-methoxy-piperidine-1-carbonyl]-7-methoxy-1-methyl-benzimidazol-2-yl]-11-methyl-spiro[1,10,19-triazatricyclo [10.5.2.0^{15,18}]nonadeca-12(19),13,15(18),16-tetraene-8,2′-tetrahydrofuran]-9-one]
24 | C[C@H]1NC(=O)[C@@H]2C[C@H]2CCCCCn2c(-c3nc4cc(C(=O)N[C@H]5CNCC[C@@H]5F)c(F)cc4n3C)cc3ccc1cc32 [Example 564, 6-fluoro-~{N}-[(3~{S},4~ {S})-4-fluoro-3-piperidyl]-1-methyl-2-[(2~{R},5~ {R},7~{R})-2-methyl-4-oxo-3,13-diazatetracyclo [11.5.2.0^{5,7}.0^{16,20}]icosa-1(19),14,16(20), 17-tetraen-14-yl] benzimidazole-5-carboxamide]
42 | COc1cc(C(=O)N[C@H]2CNCC[C@@H]2F)cc2nc(-c3cc4ccc5nc4n3CCCCC[C@@H]3C[C@H]3C(=O)N[C@@H]5C)n(C)c12 [Example 184, ~{N}-[(3~{S},4~{S})-4-fluoro-3-piperidyl]-7-methoxy-1-methyl-2-[(2~{R},5~{R},7~{R})-2-methyl-4-oxo-3,13,19-triazatetracyclo[11.5.2.0^{5,7}.0^{16,20}]icosa-1(19),14,16(20),17-tetraen-14-yl]benzimidazole-5-carboxamide]
39 | COc1cc(C(=O)N2C[C@H](N)[C@@H]3CC[C@H]2C3)cc2nc(-c3cc4ccc5nc4n3CCCCCc3ccccc3C(=O)N[C@@H]5C)c(C)n12 [Example 936, (2~{R})-17-[7-[(1~{S},4~{R}, 5~{R})-4-amino-2-azabicyclo [3.2.1]octane-2-carbonyl]-5-methoxy-3-methyl-imidazo [1,2-a]pyridin-2-yl]-2-methyl-3,16,22-triazatetracyclo [14.5.2.0^{5,10).0^{19,23}] tricosa-1(21),5(10),6,8,17,19,22-heptaen-4-one]
61 | C[C@H]1NC(=O)c2ccc(Cl)nc2CCCCCn2c(-c3nc4cc(C(=O)N5C[C@H](N)[C@@H]6CC[C@H]5C6)cc(F)c4n3[C@H]3C[C@@H]3F)cc3ccc1nc32 [Example 840, (2~{R})-17-[5-[(1~{S), 4~{R},5~{R})-4-amino-2-azabicyclo[3.2.1]octane-2-carbonyl]-7-fluoro-1-[(1~ {S},2~{S})-2-fluorocyclopropyl]benzimidazol-2-yl]-8-chloro-2-methyl-3,9,16,22-tetrazatetracyclo[14.5.2.0^ {5,10).0^{19,23}]tricosa-1(22), 5(10),6,8,17,19(23),20-heptaen-4-one]
56 | C[C@H]1NC(=O)[C@@]2(C)C[C@@H]2CCCCCn2c(-c3nc4cc(C(=O)N[C@H]5CNCC[C@@H]5F)c(F)cc4n3C3CC3)cc3ccc1nc32 [Example 545, 1-cyclopropyl-2-[(2~ {R},5~{S},7~{S})-2,5-dimethyl-4-oxo-3,13,19-triazatetracyclo[11.5.2.0^ {5,7}.0^{16,20}]icosa-1(19),14,16(20), 17-tetraen-14-yl]-6-fluoro-~{N}-[(3~ {S},4~{S})-4-fluoro-3-piperidyl]benzimidazole-5-carboxamide]
24 | COc1cc(C(=O)N2CCC[C@@H](N)[C@H]2C)cc2nc(-c3cc4ccc5nc4n3CCCCCc3nc4ccsc4cc3C(=O)N[C@@H]5C)n(C)c12 [Example 793, (2~{R})-20-[5-[(2~{R},3~{R})-3-amino-2-methyl-piperidine-1-carbonyl]-7-methoxy-1-methyl-benzimidazol-2-yl]-2-methyl-8-thia-3,12,19,25-tetrazapentacyclo[17.5.2.0^ {5,13}.0^{7,11}.0^{22,26}] hexacosa-1(24),5(13),6,9, 11,20,22,25-octaen-4-one]
153 | COc1cc(C(=O)N2CCC[C@@H](N)C2)cc2nc(-c3cc4ccc5nc4n3C[C@@H]3C[C@H]3COC[C@H](C)C(=O)N[C@@H]5C)n(C)c12 [Example 266, (5~{R},9~{S},12~{R})-18-[5-[(3~{R})-3-aminopiperidine-1-carbonyl]-7-methoxy-1-methyl-benzimidazol-2-yl]-9,12-dimethyl-7-oxa-1,11,20-triazatetracyclo[11.5.2.0^{3,5}.0^{16,19}] icosa-13(20),14,16(19),17-tetraen-10-one]
40 | COc1cc(C(=O)N2CCC[C@@H](N)C2)cc2nc(-c3cc4ccc5nc4n3C[C@H]3C[C@H]3CC[C@@H]3C[C@H]3C(=O)N[C@@H]5C)n(C)c12 (single isomer, unassigned) [Example 115, (3˜{S},5˜{R},8˜{R},10˜{R},13˜{R})-19-[5-[(3˜{R})-3-aminopiperidine-1-carbonyl]-7-methoxy-1-methyl-benzimidazol-2-yl]-13-methyl-1,12,21-triazapentacyclo[12.5.2.0^{3,5}.0^{8,10}.0^{17,20}]henicosa-14(21),15,17(20),18-tetraen-11-one]
26 | COc1cc(C(=O)N2C[C@H](N)[C@@H]3CC[C@H]2C3)cc2nc(-c3cc4ccc5nc4n3CC(F)(F)CCC[C@]3(F)C[C@H]3C(=O)N[C@@H]5C)n(C)c12 [Example 448, (2~{R},5~{S},7~{S})-14-[5-[(1~{S},4~{R},5~{R})-4-amino-2-azabicyclo[3.2.1]octane-2-carbonyl]-7-methoxy-1-methyl-benzimidazol-2-yl]-7,11,11-trifluoro-2-methyl-3,13,19-triazatetracyclo[11.5.2.0^{5,7}.0^{16,20}] icosa-1(19),14,16(20),17-tetraen-4-one]
27 | CO[C@H]1C[C@@H]1n1c(-c2cc3ccc4nc3n2CC(F)(F)CCC[C@@H]2C[C@H]2C(=O)N[C@@H]4C)nc2cc(C(=O)N3C[C@H]4CC[C@@H]3[C@@H]4N)cc(F)c21 [Example 804, (2~{R},5~{R},7~{R})-14-[5-[(1~{R},4~{R},7~{R})-7-amino-2-azabicyclo[2.2.1]heptane-2-carbonyl]-7-fluoro-1-[(1~{S},2~{S})-2-methoxycyclopropyl]benzimidazol-2-yl]-11,11-difluoro-2-methyl-3,13,19-triazatetracyclo[11.5.2.0^ {5,7}.0^{16,20}]icosa-1(18),14,16,19-tetraen-4-one]
184 | C[C@H]1NC(=O)C(C)(C)CCCCCCn2c(-c3nc4cc(C(=O)N[C@H]5CNCC[C@@H]5F)c(F)cc4n3C3CCC3)cc3ccc1nc32 [Example 420, 1-cyclobutyl-6-fluoro-˜{N}-[(3˜{S},4˜{S})-4-fluoro-3-piperidyl]-2-[(11˜{R})-8,8,11-trimethyl-9-oxo-1,10,19-triazatricyclo[10.5.2.0^{15,18}]nonadeca-12(19),13,15(18),16-tetraen-17-yl]benzimidazole-5-carboxamide]
